In patent US10406233B2, “Telodendrimers with enhanced drug delivery” (priority 2011, dated 2019):

Tests used:
[1] = Maximum tolerated dose (MTD) study; settings: mice, intravenous
[2] = Toxicity monitoring in the therapeutic study (body weight, blood cell counts, serum chemistry, heart histology); assay type: in vivo, Raji tumor bearing mice
Experimental: Subcutaneous Raji lymphoma xenograft mouse model was used to evaluate the therapeutic efficacy of different formulations of DOX. When tumor volume reached 150-300 mm^3, mice were intravenously administrated with PBS, DOX.HCl, Doxil®, or DOX-PEG^5k-CA4^αRh4^ε at the dose of 10 mg/kg DOX equivalent (MTD of free DOX) (n=5-8). The treatment was given every four day on days 0, 4 and 8 for total three doses. Tumor sizes were measured with a digital caliper twice per week. Tumor volume was calculated by the formula (L×W^2)/2, where L is the longest, and W is the shortest in tumor diameters (mm). To compare between groups, relative tumor volume (RTV) was calculated at each measurement time point (where RTV equals the tumor volume at given time point divided by the tumor volume prior to initial treatment). For humane reasons, animals were sacrificed when the implanted tumor volume reached 2000 mm^3, which was considered as the end point of survival data. At day 7 after the last dosage, blood samples were obtained from all the mice for the measurement of blood cell counts, hepatic or renal function tests (ALT, AST, and BUN), and serum enzyme markers of cardiotoxicity including creatine kinase (CK) and lactate dehydrogenase (LDH). One mouse from each group was also sacrificed, and its heart was submitted for histopathology evaluation.

[3] = tested on: Subcutaneous Raji lymphoma xenograft; experiment: In vivo anti-tumor efficacy study; parameters: species or system nude mice; settings: 10 mg/kg DOX i.v. days 0, 4, 8
Experimental: Lymphoma xenograft mouse models were established by subcutaneously injecting 1×10^7 Raji lymphoma cells in a 100 μL of mixture of PBS and Matrigel (1:1 v/v) at the right flank in female nude mice.

[4] = day 7 after last dosage, free DOX vs untreated mice, nanoformulations vs free DOX (P<0.05)

## COc1cccc2c1C(=O)c1c(O)c3c(c(O)c1C2=O)C[C@@](O)(C(=O)CO)C[C@@H]3O[C@H]1C[C@H](N)[C@H](O)[C@H](C)O1.Cl [free DOX, Doxorubicin hydrochloride]
[1]
  MTD: 10 mg/kg
[2]; 10 mg/kg DOX i.v. days 0, 4, 8
  body weight loss: significantly higher
[2]; [4]
  serum level of CK: significantly increased
  serum level of LDH: significantly increased
[2]; day 7 after the last injection, compared to PBS control
  WBC count: significantly decreased
[2]; on day 16
  death: one death
[3]
  median survival time: 32 days
[3]; by day 28
  median RTV (relative tumor volume): 9.9
